Measured values as given in US20220175777A1, “Inhibitors of Multidrug Resistance Transporter P-Glycoprotein” (Southern Methodist University, priority 2014, published 2022).

Legend:
DU145TXR [1] = assay: Dose dependent sensitization of MDR cell line to paclitaxel (MTT); format: cell-based, human; details: 25 μM compound
Method: FIGS. 6A to 6C show the dose dependent sensitization of MDR prostate cancer cell line DU145TxR. […] For reference, the DU145TxR (closed circle) and DU145 (open circle) incubated with paclitaxel only are also included. Values are mean±SEM from at least 2 separate experiments performed in triplicate wells. The data were normalized to the intrinsic toxicities as determined in studies from FIGS. 5A to 5C of each of the compounds for each of the corresponding concentrations.
Dose Dependent Sensitization of MDR Prostate Cancer Cell Line: To determine the degree to which the MDR prostate cancer cell line DU145TxR could be sensitized to paclitaxel the inventors determined cell survival at increasing concentrations of paclitaxel in the presence of three concentrations of P-gp inhibitors. FIGS. 6A, 6B and 6C show the survival of DU145TxR at increasing concentration of paclitaxel in the presence of 5 μM, 10 μM and 25 μM of the experimental compounds, respectively. The open circles represent the parental DU145 cell line in the presence of paclitaxel without addition of any inhibitor compound. The closed circles represent the survival of the multidrug resistant DU145TxR in the presence of paclitaxel alone. […] At that concentration over 10-fold increase in paclitaxel sensitivity in DU145TxR is observed compared to DU145TxR without P-gp inhibitors. Doubling the concentration of the compounds to 10 μM approximately doubled the DU145TxR sensitivity to paclitaxel.

P-gp = P-gp (Homo sapiens, UniProt P08183)
Method: Stimulation of basal ATPase by 29-variants was used as an indicator that a compound may be a P-gp transport substrate. Effects on stimulated P-gp ATPase activity indicated whether a compound directly interfered with ATP usage by the protein (***, p<0.001; **, p<0.01; *, p<0.1; NS, not significant). Quantitative cellular accumulation of 29-variants was performed using LC-MS/MS and is presented as a ratio of the cellular amounts of 29-variants in the presence of P-gp inhibitor, tariquidar, divided by amounts accumulated in its absence. […] Binding of an ATP analog, SL-ATP, to P-gp was used to determine whether ATP binding to P-gp was affected by the 29-variants. Values+/−standard deviations are shown for at least three different P-gp preparations and three independent SL-ATP titration experiments. The values for SL-ATP binding in the presence of 29 were taken directly from Brewer et al. (2014).
Intracellular accumulation of compound 29 variants. Cell accumulation assays for each of the 29 variants were performed as in reference^28 to more directly assess whether the compounds were indeed transport substrates for P-gp.

[2] = biological target: T1, Cysteineless Mouse MDR3 P-glycoprotein (Mus musculus, UniProt P21447, C1070A/C1121A/C1223A/C133A/C427A/C638A/C669A/C713A/C952A); assay: SL-ATP binding to P-gp by ESR spectroscopy; details: 50 microM inhibitor compound
T1 construct: made in house; host or cells: Pichia pastoris
How it was run: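 Cysteine-free mouse P-gp (30–50 microM) incubated with 50 microM inhibitor, then titrated with spin-labelled ATP analogue SL-ATP. Bound SL-ATP calculated from high-field ESR signal of free SL-ATP versus no-protein control, giving binding stoichiometry and affinity; at least 3 studies on 3–5 P-gp preparations.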

[3] = biological target: T1, Cysteineless Mouse MDR3 P-glycoprotein; details: cited from earlier work
DU145TXR [4] = assay: Potentiation of 500 nM paclitaxel cytotoxicity (MTT); format: cell-based, human
Method: FIGS. 4A and 4B show the in silico identified P-gp inhibitors potentiate the cytotoxic effects of paclitaxel in the MDR human prostate cancer cell line DU145TxR. […] Values represent the mean±SEM of at least two separate experiments performed in triplicate.
A range of experimental inhibitor concentrations was added in the presence of 500 nM paclitaxel and the cell viability was assessed using the MTT assay.
In order to compare the efficacy of inhibitors, the potentiation concentration of inhibitor resulting in 50% reduction in cell viability, PC50, in the presence of 500 nM paclitaxel was calculated from the data in FIG. 4A.

T1 sequence (P21447 whole entry C133A/C427A/C638A/C669A/C713A/C952A/C1070A/C1121A/C1223A): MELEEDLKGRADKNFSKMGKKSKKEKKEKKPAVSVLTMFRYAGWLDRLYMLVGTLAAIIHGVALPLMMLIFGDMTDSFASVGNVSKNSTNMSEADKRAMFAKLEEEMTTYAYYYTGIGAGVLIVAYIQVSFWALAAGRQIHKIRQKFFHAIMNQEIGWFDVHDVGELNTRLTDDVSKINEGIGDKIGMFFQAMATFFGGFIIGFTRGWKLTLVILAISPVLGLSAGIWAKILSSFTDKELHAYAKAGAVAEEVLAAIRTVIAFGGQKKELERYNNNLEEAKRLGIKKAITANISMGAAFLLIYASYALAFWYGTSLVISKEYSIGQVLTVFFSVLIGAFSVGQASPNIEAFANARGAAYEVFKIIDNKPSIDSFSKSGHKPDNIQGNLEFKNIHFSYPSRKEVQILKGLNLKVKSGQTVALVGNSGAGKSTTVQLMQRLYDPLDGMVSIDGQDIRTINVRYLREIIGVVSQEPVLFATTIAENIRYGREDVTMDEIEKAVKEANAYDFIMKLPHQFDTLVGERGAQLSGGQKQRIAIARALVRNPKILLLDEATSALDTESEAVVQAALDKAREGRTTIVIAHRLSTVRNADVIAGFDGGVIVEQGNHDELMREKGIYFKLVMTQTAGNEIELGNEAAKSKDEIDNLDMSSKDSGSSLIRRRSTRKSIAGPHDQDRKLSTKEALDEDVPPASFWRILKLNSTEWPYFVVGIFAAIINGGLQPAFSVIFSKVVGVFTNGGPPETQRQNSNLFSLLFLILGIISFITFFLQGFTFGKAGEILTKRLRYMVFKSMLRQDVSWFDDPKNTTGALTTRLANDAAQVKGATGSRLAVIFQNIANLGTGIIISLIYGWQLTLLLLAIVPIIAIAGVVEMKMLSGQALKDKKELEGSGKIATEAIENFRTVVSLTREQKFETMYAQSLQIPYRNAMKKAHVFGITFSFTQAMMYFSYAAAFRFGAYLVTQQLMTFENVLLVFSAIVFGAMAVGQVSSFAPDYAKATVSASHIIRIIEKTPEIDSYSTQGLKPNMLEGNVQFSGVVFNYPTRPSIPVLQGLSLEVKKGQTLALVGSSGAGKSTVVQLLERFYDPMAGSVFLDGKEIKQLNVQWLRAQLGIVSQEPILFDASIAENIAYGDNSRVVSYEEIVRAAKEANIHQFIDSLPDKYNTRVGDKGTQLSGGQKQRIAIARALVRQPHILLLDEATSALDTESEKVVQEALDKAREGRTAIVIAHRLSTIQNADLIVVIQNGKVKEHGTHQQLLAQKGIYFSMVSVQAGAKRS
Sequence of P-gp (P08183 whole entry): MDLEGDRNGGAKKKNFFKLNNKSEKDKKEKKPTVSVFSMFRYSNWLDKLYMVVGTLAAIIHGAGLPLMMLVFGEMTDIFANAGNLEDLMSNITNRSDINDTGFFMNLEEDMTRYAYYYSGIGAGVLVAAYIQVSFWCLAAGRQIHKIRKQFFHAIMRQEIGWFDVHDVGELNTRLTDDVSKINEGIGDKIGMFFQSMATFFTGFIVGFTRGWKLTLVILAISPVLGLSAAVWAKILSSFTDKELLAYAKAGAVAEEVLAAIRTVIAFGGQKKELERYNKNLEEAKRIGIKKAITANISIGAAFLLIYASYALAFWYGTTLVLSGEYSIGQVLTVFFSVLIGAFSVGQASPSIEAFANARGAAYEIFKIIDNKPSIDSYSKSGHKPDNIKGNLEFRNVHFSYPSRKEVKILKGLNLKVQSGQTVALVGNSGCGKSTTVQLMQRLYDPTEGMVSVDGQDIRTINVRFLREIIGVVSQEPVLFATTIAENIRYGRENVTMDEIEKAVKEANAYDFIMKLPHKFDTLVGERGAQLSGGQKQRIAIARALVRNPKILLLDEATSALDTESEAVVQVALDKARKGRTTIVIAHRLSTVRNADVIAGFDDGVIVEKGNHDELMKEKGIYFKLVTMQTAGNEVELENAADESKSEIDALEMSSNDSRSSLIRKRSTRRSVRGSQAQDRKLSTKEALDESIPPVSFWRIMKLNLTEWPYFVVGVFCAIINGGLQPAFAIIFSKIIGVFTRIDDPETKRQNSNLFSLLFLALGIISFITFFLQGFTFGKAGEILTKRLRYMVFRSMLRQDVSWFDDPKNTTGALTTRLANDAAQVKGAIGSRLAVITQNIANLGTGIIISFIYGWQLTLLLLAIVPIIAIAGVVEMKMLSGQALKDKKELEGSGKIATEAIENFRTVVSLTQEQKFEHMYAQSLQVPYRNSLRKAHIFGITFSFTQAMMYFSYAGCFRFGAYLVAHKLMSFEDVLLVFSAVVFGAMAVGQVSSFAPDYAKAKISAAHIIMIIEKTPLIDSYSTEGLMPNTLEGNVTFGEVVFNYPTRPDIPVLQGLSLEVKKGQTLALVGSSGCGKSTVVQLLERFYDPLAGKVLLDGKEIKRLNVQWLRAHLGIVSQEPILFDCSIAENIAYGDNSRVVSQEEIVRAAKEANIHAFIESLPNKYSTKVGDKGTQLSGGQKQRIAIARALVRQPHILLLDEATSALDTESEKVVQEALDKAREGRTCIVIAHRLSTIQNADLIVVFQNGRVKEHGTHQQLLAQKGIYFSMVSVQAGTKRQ

Intracellular accumulation in the presence versus absence of TQR (P-gp): no significant difference | Transport substrate for P-gp (P-gp; not told): not a transport substrate | Effect on SL-ATP binding [2]: decreased the SL-ATP binding affinities
SMILES: Cc1cc(C)c(-c2cc(NC(=O)CSc3n[nH]c(C4CC4)n3)n(-c3ccccc3)n2)cc1C [SMU-29, 2-[(5-cyclopropyl-1H-1,2,4-triazol-3-yl)sulfanyl]-N-[2-phenyl-5-(2,4,5-trimethylphenyl)pyrazol-3-yl]acetamide]
Sensitization to paclitaxel (DU145TXR [1]): 800 fold | Effect on SL-ANP binding ([3]; ESR data of Brewer et al. (2014)): not interfere with ATP binding | Maximum ATP binding mol SL-ANP bound/mol P-gp ([3]; in presence of 29, taken from Brewer et al. (2014)): 1.9 ± 0.1^1 mol SL-ANP bound/mol P-gp | Effect on paclitaxel sensitivity (DU145TXR [4]; 50 nM-25 μM inhibitor with 500 nM paclitaxel): strongly affected the sensitivity | EC50 (DU145TXR [4]; in the presence of 500 nM paclitaxel, 48 hours, read-out: PC50, potentiation concentration of inhibitor resulting in 50% reduction in cell viability): 2330 ± 10 nM
